Experimental data reported in article PMC9775191, “A Subset Screen of the Compounds Australia Scaffold Library Identifies 7-Acylaminodibenzoxazepinones as Potent and Selective Hits for Anti-Giardia Drug Discovery” (Biomedicines, 2022).

Test system: G. duodenalis BRIS/91/HEPU/1279
Assay: Primary Giardia screen at 10 µM (live-cell imaging, automated counting)
Format: cell-based, Giardia duodenalis
Settings: for % Inhibition n=1 48h / % Inhibition n=1 24h: first singlicate assay; for % Inhibition n=2 24h / % Inhibition n=2 48h: re-assessment
In short: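 Singlicate, 10 μM final, 0.2% DMSO; sealed chambers, 3% O2/5% CO2/N2. Counts by live-cell imaging at 24 h and 48 h. % growth vs vehicle, media background subtracted; Z' per plate.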

For `O=C(Cc1ccccc1Cl)NCCc1noc(-c2ccccn2)n1` [SN00781138], the “% Inhibition n=1 48h” value was 21.7%.

For `NCC1CN(C2CC2)CCO1` (stereo not drawn) [SN00782004], the “% Inhibition n=1 48h” value was 23.7%.

For `O=C(NCc1ccccc1Cl)c1cc2n(n1)CCCN(Cc1ccc(F)cc1)C2=O` [SN00792328], the “% Inhibition n=1 48h” value was 0.0%.

`COc1ccc(N2C(=O)c3cc(-c4ccco4)nn3CC2(C)C(=O)NC(C)(C)C)cc1` (stereo not drawn) [SN00787372] was tested, and the “% Inhibition n=1 48h” value was 16.8%.

`COc1ccccc1-c1nc(C2CCCN(C(=O)c3ccc(C(C)C)cc3)C2)no1` (stereo not drawn) [SN00798647] was tested, and the “% Inhibition n=1 48h” value was 0.0%.

In the case of `O=C(NCc1ccc2c(c1)CCN2C(=O)c1ccccc1)C1CCN(S(=O)(=O)N2CCCC2)CC1` [SN00793589], the “% Inhibition n=1 48h” value was 7.9%.

For `COc1c(C(=O)Nc2ccc(C)cc2)oc2ccc(NC(=O)c3ccc(C)s3)cc12` [SN00798811], the “% Inhibition n=1 48h” value was 19.9%.

With `Cc1nn(C)c2sc(C(=O)N3CCN(S(=O)(=O)c4ccc(Br)cc4)CC3)cc12` [SN00774390] the “% Inhibition n=1 48h” value was 10.6%.

`CCOC(=O)CCNC(=O)N1CCc2c(nc3cc(-c4ccccc4Cl)[nH]n3c2=O)C1` [SN00800844] was tested, and the “% Inhibition n=1 48h” value was 13.6%.

`COc1ccc(CCC(=O)N2CCCN(C(=O)c3cc(-c4cccc(Cl)c4)on3)CC2)cc1` [SN00782943] was tested, and the “% Inhibition n=1 48h” value was 0.0%.

For `CCCN1C(=O)c2cc(C(=O)Nc3ccc(F)cc3)ccc2C1Nc1ccc(F)cc1` (stereo not drawn) [SN00785169], the “% Inhibition n=1 48h” value was 13.3%.

In the case of `CN(C)C(=O)c1ccc(OC2CCN(C(=O)c3ccco3)CC2)nc1` [SN00800077], the “% Inhibition n=1 48h” value was 13.6%.

In the case of `Cc1nc(-c2ccc(C(=O)N3CCCC3C(=O)Nc3ccc(C(C)C)cc3)cc2)no1` (stereo not drawn) [SN00793315], the “% Inhibition n=1 48h” value was 0.0%.

With `CCc1noc(C)c1C(=O)N1CCCN(Cc2csc(C)n2)CC1` [SN00778114] the “% Inhibition n=1 48h” value was 29.4%.

`COc1ccc(N2CC(c3noc(-c4ccc(C(C)(C)C)cc4)n3)CC2=O)cc1` (stereo not drawn) [SN00801793] was tested, and the “% Inhibition n=1 48h” value was 0.0%.

With `Cc1cc(NS(=O)(=O)c2cc(-c3[nH]ncc3C(=O)N3CCCC3)oc2C)ccc1F` [SN00800668] the “% Inhibition n=1 48h” value was 0.0%.

With `Cn1cc(CN2C(=O)NC(C)(c3ccco3)C2=O)cn1` (stereo not drawn) [SN00774074] the “% Inhibition n=1 48h” value was 16.2%.

With `CCCc1cc(=O)n2nc(N(C)CC(=O)NCCCN3CCCC3=O)sc2n1` [SN00785642] the “% Inhibition n=1 48h” value was 4.1%.

With `CCCNC(=O)Cn1cccc1-c1nc(-c2ccc(Cl)cc2)cs1` [SN00797520] the “% Inhibition n=1 48h” value was 24.8%.

For `Cc1cccc(NC(=O)N2CCN(c3cc(C)nc(N4CCCC4)n3)CC2)c1` [SN00786874], the “Average % Inhibition 24h” value was 3.5%, the “% Inhibition n=1 24h” value was 7.1% and the “% Inhibition n=2 24h” value was 0.0%. The “Average % Inhibition 48h” value was 39.9%, the “% Inhibition n=1 48h” value was 49.3% and the “% Inhibition n=2 48h” value was 30.5%.

`O=C(Cn1c(-c2ccccn2)noc1=O)N1CCc2sccc2C1` [SN00781376] was tested, and the “% Inhibition n=1 48h” value was 0.0%.

For `CCc1nnsc1C(=O)N1CCCN(Cc2cnn(CC)c2)CC1` [SN00782455], the “% Inhibition n=1 48h” value was 0.0%.

`CC(C)(C)c1ccc(C(=O)N2CCC3(CC2)N=C(c2cccc(Cl)c2)C(=O)N3)cc1` [SN00792200] was tested, and the “% Inhibition n=1 48h” value was 32.1%.

For `COc1ccc(-c2nc(CS(=O)(=O)c3ccc(C)cc3)no2)c(C)c1` [SN00798481], the “% Inhibition n=1 48h” value was 11.0%.

For `CCOC(=O)c1sc(N2C(=O)C(O)=C(C(=O)c3ccco3)C2c2ccc(OC)cc2)nc1C` (stereo not drawn) [SN00776656], the “% Inhibition n=1 48h” value was 6.9%.

In the case of `CCOc1ccccc1N1C(=O)C(=O)N(Cc2nc(C)no2)C1=O` [SN00774186], the “% Inhibition n=1 48h” value was 14.0%.

In the case of `CCOC(=O)c1cc(-c2ccccc2)n(CCC(=O)N2CCn3c2nc2ccccc23)c1C` [SN00794728], the “% Inhibition n=1 48h” value was 10.1%.

With `Cc1ccnc(Nc2nc(C)c(C(=O)NC3CC3)s2)c1` [SN00797622] the “% Inhibition n=1 48h” value was 13.3%.

In the case of `COc1cc2ccccc2cc1C(=O)Nc1nc2c(s1)CN(Cc1ccccc1)CC2` [SN00788706], the “% Inhibition n=1 48h” value was 9.9%.

In the case of `O=C(NCCc1ccccn1)c1ccc2[nH]c3c(c2c1)CN(C(=O)C1CCC1)CC3` [SN00798214], the “% Inhibition n=1 48h” value was 0.0%.

With `CCOC(=O)c1c(NC(=O)CN2C(=O)COc3ccc(Cl)cc32)sc2c1CCCC2` [SN00783847] the “% Inhibition n=1 48h” value was 26.0%.

For `Cc1ccccc1C(=O)N1CCN(C(=O)c2[nH]nc3ccccc23)CC1` [SN00770261], the “% Inhibition n=1 48h” value was 25.4%.

For `CCc1nc(-c2ccc3c(c2)CCN3C(=O)CCc2ccc(OC)cc2)no1` [SN00790989], the “% Inhibition n=1 48h” value was 14.1%.

For `CCOC(=O)c1sc2nc(C)nc(N3CCCCC3C)c2c1C` (stereo not drawn) [SN00783508], the “% Inhibition n=1 48h” value was 0.0%.

With `CCC1CN2C=NC(N3CCN(C(=O)CCc4ccccc4OC)CC3)=CC2=N1` (stereo not drawn) [SN00800900] the “% Inhibition n=1 48h” value was 25.4%.

With `O=C(NCc1ccco1)c1cnn2c1N[C@@H](c1ccc(Br)cc1)C[C@H]2C(F)(F)F` (relative stereo) [SN00783428] the “Average % Inhibition 24h” value was 15.1%, the “% Inhibition n=1 24h” value was 27.8% and the “% Inhibition n=2 24h” value was 2.5%. The “Average % Inhibition 48h” value was 18.5%, the “% Inhibition n=1 48h” value was 35.3% and the “% Inhibition n=2 48h” value was 1.8%.

`Cc1nnc(-c2nnc(NCc3ccccc3)c3ccccc23)o1` [SN00800540] was tested, and the “% Inhibition n=1 48h” value was 1.6%.

With `CC(C)CC(=O)NCc1nc2cccnc2n1Cc1ccc(F)cc1` [SN00793251] the “% Inhibition n=1 48h” value was 8.4%.

With `O=C(NCCC1=CCCCC1)C1CCN(c2nc3cccnc3n(Cc3ccccc3)c2=O)CC1` [SN00790039] the “% Inhibition n=1 48h” value was 11.4%.

`CSc1ccccc1NC(=O)C1CCN(S(C)(=O)=O)c2ccccc2O1` (stereo not drawn) [SN00794287] was tested, and the “% Inhibition n=1 48h” value was 8.2%.

For `Cc1ccc(CNc2nc(-c3ccco3)nn2C(=O)C(C)C)cc1` [SN00786221], the “% Inhibition n=1 48h” value was 11.1%.

`Cn1c(C(=O)N2CCN(c3ccccc3)CC2)cc2c1CCN(Cc1ccccc1)C2` [SN00799590] was tested, and the “% Inhibition n=1 48h” value was 1.6%.

With `Cc1nn(-c2ccc(F)cc2)c2nc(N3CCCN(C(=O)Cc4cccs4)CC3)sc12` [SN00803162] the “% Inhibition n=1 48h” value was 27.0%.

In the case of `O=C(c1ccoc1)N1CCC(Oc2nccnc2N2CCc3ccccc32)C1` (stereo not drawn) [SN00800151], the “% Inhibition n=1 48h” value was 22.8%.

In the case of `CN(C)S(=O)(=O)c1ccc2c(c1)cc(C(=O)NCCCN1CCc3ccccc3C1)n2C` [SN00792874], the “% Inhibition n=1 48h” value was 0.0%.

`O=C(Nc1ccnn1Cc1ccccn1)c1cccnc1Oc1ccccc1` [SN00775947] was tested, and the “% Inhibition n=1 48h” value was 2.6%.

For `CCC1c2ccsc2CCN1C(=O)C1CCN(S(=O)(=O)c2ccc(Cl)c([N+](=O)[O-])c2)CC1` (stereo not drawn) [SN00771236], the “% Inhibition n=1 48h” value was 27.8%.

With `O=C(NCCC1=CCCCC1)c1cccn1-c1cccnc1` [SN00788993] the “% Inhibition n=1 48h” value was 14.0%.

`CCc1ncncc1C(=O)N1CCN(Cc2nc(C(C)C)no2)CC1` [SN00779817] was tested, and the “% Inhibition n=1 48h” value was 26.6%.

For `COc1ccc(C2(C(=O)N3CCC(Cc4nc(-c5ccc(F)cc5)no4)CC3)CC2)cc1` [SN00801690], the “% Inhibition n=1 48h” value was 0.0%.

With `O=C(Cc1ccccc1[N+](=O)[O-])N1CCN(C(=O)c2ccc3c(c2)OCO3)CC1` [SN00774731] the “% Inhibition n=1 48h” value was 9.4%.

In the case of `O=C(CCc1ccc(F)cc1)Nc1ccn(Cc2ccccn2)n1` [SN00775953], the “% Inhibition n=1 48h” value was 0.0%.

In the case of `O=C(CC1COc2ccccc2N1Cc1ccccc1)N1CCc2ccccc2C1` (stereo not drawn) [SN00790679], the “% Inhibition n=1 48h” value was 0.0%.

In the case of `CCOC(=O)Cn1c(=O)n(-c2ccccc2)c(=O)c2cc3c(nc21)CC(C)(C)OC3` [SN00786524], the “% Inhibition n=1 48h” value was 18.7%.

In the case of `CC1(C(=O)N2CCCC(CN3CCOCC3)C2)CC1(Cl)Cl` (stereo not drawn) [SN00782980], the “% Inhibition n=1 48h” value was 14.3%.

In the case of `O=C(c1noc2ncnc(N3CCCC3)c12)N1CCN(c2ccccn2)CC1` [SN00791654], the “% Inhibition n=1 48h” value was 7.3%.
